Assay results from US20260240931A1 (priority 2022, published 2026).

How the values were obtained:
[1] = system: human hair follicle dermal papilla cells (HDPs); conditions: 100 nM
Protocol: C57BL/6 mice (male, five weeks old) were purchased from Orient Bio. In addition, the mice were raised with sufficient water and food. The animal experiment of the present disclosure was performed in accordance with the guidelines ([…]-2021 Jul. 18-1) of the Institutional Animal Care and Use Committee (IACUC) at Sungkyunkwan University. The HDP cells were cultured in a HDP growth medium under conditions of 37° C. and 5% CO2.
Cell proliferation analysis was performed in the presence or absence of dihydrotestosterone ([…]). […] The optical density was detected at 540 nm.

[2] = system: testosterone-induced androgenetic alopecia model; assay: testosterone-induced androgenetic alopecia model: hair growth, skin color score, hair type frequency, hair thickness; assay type: in vivo, C57BL/6 mice; conditions: on 1 week
Protocol: A testosterone-induced androgenetic alopecia model was fabricated using C57BL/6 mice. C57BL/6 mice (n=6) were divided into the following five groups: Normal group, Vehicle control group: Experimental group treated with 40 μg/kg/week testosterone, Experimental group treated with 5 mg/day Cs-EE (Connarus semidecandrus Jack. extract according to the present disclosure), Experimental group treated with 10 mg/day Cs-EE, and Positive control group: Experimental group treated with 5 mg/kg/day finasteride. To confirm a hair growth promoting effect of Cs-EE, the dorsal part of each mouse was treated with hair removal cream and shaved using an electric clipper twice; seven and three days before the first testosterone treatment.
40 μg/kg of testosterone was dissolved in sesame oil and then subcutaneously injected once a week four times. Thereafter, in the case of the Cs-EE-treated experimental group, Cs-EE diluted with PBS and DMSO (ratio of 1:1) was applied to the back part of the mouse once every day for three weeks. As the positive control group, 5 mg of finasteride was treated instead of Cs-EE of the present disclosure. Two days after the testosterone injection, mice in all experimental groups were euthanized. Thereafter, the dorsal hairs were isolated from each experimental group to confirm hair type frequency and hair thickness. […]

Structure (SMILES)	cytotoxicity to HDP cells (FIG. 9B) [1]	hair growth on shaved skin (FIG. 2) [2]
C[C@]12CCC(=O)C[C@@H]1CC[C@@H]1[C@@H]2CC[C@]2(C)[C@@H](O)CC[C@@H]12 [DHT, dihydrotestosterone]	cytotoxic	
CC(C)(C)NC(=O)[C@H]1CC[C@H]2[C@@H]3CC[C@H]4NC(=O)C=C[C@]4(C)[C@H]3CC[C@]12C [finasteride]		remained hairless
